Test results: patent publication US20080119501A1, “IMMEDIATE RELEASE OXYMORPHONE COMPOSITIONS AND METHODS OF USING SAME” (priority 2006, published 2008)

Assay: Single- and multiple-dose pharmacokinetic and dose-proportionality study of oxymorphone IR tablets in healthy subjects
Conditions: for AUC∞, mean: n=23; for AUC(0-inf) / concentration at 6 day / concentration at 7 day / concentration at 8 day / Cmax / half-life: both, human, oral
[1] = single dose oxymorphone IR 5 mg
[2] = single dose oxymorphone IR 5 mg, plasma
[3] = single dose oxymorphone IR 10 mg
[4] = single dose oxymorphone IR 10 mg, plasma
[5] = single dose oxymorphone IR 20 mg
[6] = single dose oxymorphone IR 20 mg, plasma
[7] = steady state, oxymorphone IR 5 mg q6 h
[8] = steady state, oxymorphone IR 10 mg q6 h
[9] = steady state, oxymorphone IR 20 mg q6 h

CN1CC[C@]23c4c5ccc(O)c4O[C@H]2C(O)CC[C@@]3(O)[C@H]1C5 (stereo partly drawn) [6-OH-oxymorphone]
t1/2 (terminal elimination half-life), mean [1]: 7.27 h | terminal elimination rate constant, mean [1]: 0.1661 h⁻¹ | tmax, median [1]: 0.50 h | Cmax, mean [2]: 095 ng/mL | AUC∞, mean [2]: 4.02 ng·h/mL | t1/2 (terminal elimination half-life), mean [3]: 13.72 h | terminal elimination rate constant, mean [3]: 0.0752 h⁻¹ | tmax, median [3]: 0.50 h | Cmax, mean [4]: 1.62 ng/mL | AUC∞, mean [4]: 9.90 ng·h/mL | t1/2 (terminal elimination half-life), mean [5]: 18.35 h | terminal elimination rate constant, mean [5]: 0.0414 h⁻¹ | tmax, median [5]: 0.50 h | Cmax, mean [6]: 3.57 ng/mL | AUC∞, mean [6]: 24.37 ng·h/mL | deviation from a linear dose response (single-dose administration): approximately 20% | AUCSS, mean [7]: 4.98 ng·h/mL | Cavg (average plasma concentration), mean [7]: 0.83 ng/mL | Cmax, mean [7]: 1.55 ng/mL | Cmin, mean [7]: 0.70 ng/mL | tmax, median [7]: 0.50 h | AUCSS, mean [8]: 10.77 ng·h/mL | Cavg (average plasma concentration), mean [8]: 1.80 ng/mL | Cmax, mean [8]: 3.12 ng/mL | Cmin, mean [8]: 1.52 ng/mL | tmax, median [8]: 0.50 h | AUCSS, mean [9]: 23.68 ng·h/mL | Cavg (average plasma concentration), mean [9]: 3.95 ng/mL | Cmax, mean [9]: 6.94 ng/mL | Cmin, mean [9]: 3.34 ng/mL | tmax, median [9]: 0.50 h | deviation from a linear dose response (steady-state concentrations): approximately 10%

CN1CC[C@]23c4c5ccc(O)c4O[C@H]2C(=O)CC[C@@]3(O)[C@H]1C5 [Oxymorphone, oxymorphone]
dose proportionality of dose-normalised AUC∞, AUCss or Cmax (5-20 mg, single dose and steady state): linear and dose-proportional pharmacokinetics | AUC(0-inf) (plasma, 5 mg): 4.48 ng·h/mL | concentration at 6 day (plasma, 5 mg): 0.47 ng/mL | concentration at 7 day (plasma, 5 mg): 0.5 ng/mL | concentration at 8 day (plasma, 5 mg): 0.49 ng/mL | Cmax (plasma, 5 mg, mean, single dose oxymorphone IR 5 mg): 1.1 ng/mL | Cmax (plasma, 5 mg, mean, steady state, oxymorphone IR 5 mg q6 h): 1.73 ng/mL | half-life (plasma, 5 mg, t1/2 (terminal elimination half-life), mean, single dose oxymorphone IR 5 mg): 7.25 h | AUC(0-inf) (plasma, 10 mg): 9.1 ng·h/mL | concentration at 6 day (plasma, 10 mg): 0.98 ng/mL | concentration at 7 day (plasma, 10 mg): 0.99 ng/mL | concentration at 8 day (plasma, 10 mg): 1.16 ng/mL | Cmax (plasma, 10 mg, mean, single dose oxymorphone IR 10 mg): 1.93 ng/mL | Cmax (plasma, 10 mg, mean, steady state, oxymorphone IR 10 mg q6 h): 3.51 ng/mL | half-life (plasma, 10 mg, t1/2 (terminal elimination half-life), mean, single dose oxymorphone IR 10 mg): 7.78 h | AUC(0-inf) (plasma, 20 mg): 20.1 ng·h/mL | concentration at 6 day (plasma, 20 mg): 2.05 ng/mL | concentration at 7 day (plasma, 20 mg): 2.31 ng/mL | concentration at 8 day (plasma, 20 mg): 2.47 ng/mL | Cmax (plasma, 20 mg, mean, single dose oxymorphone IR 20 mg): 4.39 ng/mL | Cmax (plasma, 20 mg, mean, steady state, oxymorphone IR 20 mg q6 h): 7.33 ng/mL | half-life (plasma, 20 mg, elimination half-life (t1/2) across doses, single dose, oxymorphone IR 5, 10 and 20 mg): 7.3 to 9.4 h | half-life (plasma, 20 mg, t1/2 (terminal elimination half-life), mean, single dose oxymorphone IR 20 mg): 9.43 h | time to achieve steady-state conditions (dosing every 6 hours, from trough concentrations): 3 to 4 days | CL/F (oral clearance), mean [1]: 23.53 L/min | Ln-CL/F, geometric least square mean (standard error), normalised to 10 mg [1]: 20.61 (1.05) L/min | terminal elimination rate constant, mean [1]: 0.1534 h⁻¹ | CL/F (oral clearance), mean [3]: 21.42 L/min | Ln-CL/F, geometric least square mean (standard error), normalised to 10 mg [3]: 19.62 (1.05) L/min | terminal elimination rate constant, mean [3]: 0.1257 h⁻¹ | CL/F (oral clearance), mean [5]: 18.21 L/min | Ln-CL/F, geometric least square mean (standard error), normalised to 10 mg [5]: 17.27 (1.05) L/min | terminal elimination rate constant, mean [5]: 0.0835 h⁻¹ | Ln-CL/F, geometric least square mean (standard error), normalised to 10 mg (steady state, every 6 hours, oxymorphone IR 5 mg): 18.70 (1.03) L/min | Ln-CL/F, geometric least square mean (standard error), normalised to 10 mg (steady state, every 6 hours, oxymorphone IR 10 mg): 17.08 (1.03) L/min | Ln-CL/F, geometric least square mean (standard error), normalised to 10 mg (steady state, every 6 hours, oxymorphone IR 20 mg): 16.72 (1.03) L/min | C/LF (oral clearance), mean [7]: 19.23 L/min | Cavg (average plasma concentration), mean [7]: 0.77 ng/mL | Cmin, mean [7]: 0.49 ng/mL | C/LF (oral clearance), mean [8]: 17.63 L/min | Cavg (average plasma concentration), mean [8]: 1.70 ng/mL | Cmin, mean [8]: 1.16 ng/mL | tmax, median [8]: 0.50 h | C/LF (oral clearance), mean [9]: 17.68 L/min | Cavg (average plasma concentration), mean [9]: 3.52 ng/mL | Cmin, mean [9]: 2.47 ng/mL

CN1CC[C@]23c4c5ccc(O[C@@H]6O[C@H](C(=O)O)[C@@H](O)[C@H](O)[C@H]6O)c4O[C@H]2C(=O)CC[C@@]3(O)[C@H]1C5 [Oxymorphone-3-glucuronide, oxymorphone-3-glucuronide]
t1/2 (terminal elimination half-life), mean [1]: 8.48 h | terminal elimination rate constant, mean [1]: 0.0936 h⁻¹ | tmax, median [1]: 1.00 h | Cmax, mean [2]: 134.24 ng/mL | AUC∞, mean [2]: 650.03 ng·h/mL | t1/2 (terminal elimination half-life), mean [3]: 9.15 h | terminal elimination rate constant, mean [3]: 0.0805 h⁻¹ | tmax, median [3]: 1.00 h | Cmax, mean [4]: 265.78 ng/mL | AUC∞, mean [4]: 1322.72 ng·h/mL | t1/2 (terminal elimination half-life), mean [5]: 9.67 h | terminal elimination rate constant, mean [5]: 0.0763 h⁻¹ | tmax, median [5]: 1.00 h | Cmax, mean [6]: 516.26 ng/mL | AUC∞, mean [6]: 2672.40 ng·h/mL | AUCSS, mean [7]: 618.77 ng·h/mL | Cavg (average plasma concentration), mean [7]: 103.13 ng/mL | Cmax, mean [7]: 180.25 ng/mL | Cmin, mean [7]: 59.67 ng/mL | tmax, median [7]: 1.00 h | AUCSS, mean [8]: 1321.37 ng·h/mL | Cavg (average plasma concentration), mean [8]: 220.23 ng/mL | Cmax, mean [8]: 376.25 ng/mL | Cmin, mean [8]: 136.77 ng/mL | tmax, median [8]: 1.00 h | AUCSS, mean [9]: 2557.29 ng·h/mL | Cavg (average plasma concentration), mean [9]: 426.22 ng/mL | Cmax, mean [9]: 722.24 ng/mL | Cmin, mean [9]: 272.54 ng/mL | tmax, median [9]: 1.00 h
